In US12246005B2, “5-methoxy-n,n-dimethyltryptamine (5-MeO-DMT) formulations” (Beckley Psytech Limited, priority 2023, dated 2025):
Entries after “also recorded” stand apart in the source; their conditions may differ. Where a name gives a salt, the structure may show the parent alone.

What was measured:
[1] = Phase 1 single ascending dose study of intranasal 5-MeO-DMT benzoate (safety, tolerability, pharmacokinetics); type: in vivo, human
Description: (§1) The applicant has funded double-blind, randomized, Phase 1, single ascending dose studies to evaluate the safety, tolerability and pharmacokinetic profile of intranasal 5-MeO-DMT hydrochloride and intranasal 5-MeO-DMT benzoate in healthy subjects. […] It is desirable that a compound for use in treatment has dose-proportional pharmacokinetics, for example, to facilitate dose and dose regimen adjustment in patients. In an embodiment, there is provided a salt of 5-MeO-DMT with dose-proportional pharmacokinetics, optionally for use in the methods disclosed herein. In an embodiment, the salt of 5-MeO-DMT with dose-proportional pharmacokinetics is the benzoate or HBr salt, optionally the benzoate salt. A double-blind, randomized, Phase 1, single ascending dose study to evaluate the safety, tolerability and pharmacokinetic profile of a liquid intranasal 5-MeO-DMT HCl (5-MeO-DMT HCl, HPMC, water for injection (WFI) and a sodium hydroxide solution to adjust pH) formulation in healthy subjects was performed.
A double-blind, randomized, Phase 1, single ascending dose study to evaluate the safety, tolerability and pharmacokinetic profile of intranasal 5-MeO-DMT benzoate in healthy subjects was performed.

[2] = Thermal decomposition properties of salt forms (TGA); type: physicochemical
Description: The thermal decomposition properties of a range of salt forms of 5-MeO-DMT has been investigated and is summarised in the report below: […]

[3] = at 20° C. water; cited from earlier work
Hygroscopicity = type: physicochemical
Description: In an embodiment, the formulation is non-hygroscopic. […] Hygroscopicity is the phenomenon of attracting and holding water molecules via either adsorption or absorption from the surrounding environment. Pharmaceuticals that pick up less than 0.2% moisture at 80% RH are considered non hygroscopic. […] Pharmaceuticals that pick up more than 15.0% moisture at 80% RH are considered very hygroscopic. Hygroscopic substances are difficult to handle and costly and burdensome measures must be taken in order to ensure they are not exposed to moisture during process and formulation. Exposed to moisture, hygroscopic substances can take on water and convert to a hydrous form. This presents several disadvantages. First, the hydrous forms may have the disadvantage of being less bioavailable and less dissoluble than the anhydrous forms. Second, the variation in the amount of hydrous versus anhydrous substance from batch to batch could fail to meet specifications set by drug regulatory agencies. […] Fourth, in addition to problems caused by introduction of moisture during the processing of these hygroscopic substances, the potential for absorbance of moisture during storage and handling would adversely affect the dissolubility of the drug substance.

Irritation tolerability = settings: in particular when compared to the chloride salt
[4] = Solubility studies of lyophilised amorphous form (dissolution rate); type: physicochemical
Description: Amorphous 5-MeO-DMT salt formulations have been produced via lyophilisation processes. It is noted that in some cases these have low glass transition temperatures. Conversion to a crystalline form may therefore occur, perhaps rapidly.

[5] = Previous preclinical work in dogs defining maximum exposure limits; settings: dog, in vivo
[6] = Phase 1 single ascending dose study of liquid intranasal 5-MeO-DMT HCl formulation; type: in vivo, human; settings: liquid intranasal formulation, 5, 8, 10, 11 and 14 mg, healthy subjects
Description: as §1

Molecule: CN(C)CCc1c[nH]c2ccc(O)cc12 [Bufotenin]
- detection of metabolite in plasma ([1]; after intranasal 5-MeO-DMT benzoate, 6 mg dose level, after the 16 minutes timepoint): only detected at very low levels

Molecule: COc1ccc2[nH]cc(CCN(C)C)c2c1.O=S(=O)(O)c1ccccc1 [Benzenesulfonate, 5-MeO-DMT benzenesulfonate]
- TGA Guidance: decomposition temperature [2]: Melt 76° C., gross dcomp starts 280 °C

Molecule: COc1ccc2[nH]cc(CCN(C)C)c2c1 [Saccharinate, 5-MeO-DMT saccharinate]
- TGA Guidance: decomposition temperature [2]: Melt 80° C., gross dcomp starts 180 °C

Molecule: 5-MeO-DMT tartrate
- TGA Guidance: decomposition temperature [2]: Melt ~140° C., decomp ~200 °C

Molecule: COc1ccc2[nH]cc(CCN(C)C)c2c1 [Ketoglutarate, 5-MeO-DMT ketoglutarate]
- TGA Guidance: decomposition temperature [2]: Melt 85° C., gross dcomp starts 170 °C

Molecule: 5-MeO-DMT malate
- TGA Guidance: decomposition temperature [2]: Melt 100° C, gross dcomp starts 250 °C

Molecule: COc1ccc2[nH]cc(CCN(C)C)c2c1 [Fumarate, 5-MeO-DMT fumarate]
- TGA Guidance: decomposition temperature [2]: Decomp around 200 °C

Molecule: 5-MeO-DMT glycolate
- TGA Guidance: decomposition temperature [2]: Melt 95° C., gross dcomp starts 170 °C

Molecule: COc1ccc2[nH]cc(CCN(C)C)c2c1.O=C(O)C(=O)O [Oxalate, 5-MeO-DMT oxalate]
- TGA Guidance: mass loss [2]: Melts 176° C., full mass loss

Molecule: isomalt
- Solubility [3]: 42 g/100 g solution

Molecule: Br.COc1ccc2[nH]cc(CCN(C)C)c2c1 [Hydrobromide, 5-MeO-DMT hydrobromide]
- hygroscopicity (Hygroscopicity): non-hygroscopic
- TGA Guidance: decomposition temperature [2]: Melt 149° C., gross dcomp starts 220 °C

Molecule: COc1ccc2[nH]cc(CCN(C)C)c2c1 [Phosphate, 5-MeO-DMT phosphate]
- TGA Guidance: decomposition temperature [2]: Decomp around 200 °C

Molecule: COc1ccc2[nH]cc(CCN(C)C)c2c1.O=C(O)c1ccccc1 [5-MeO-DMT benzoate]
- dose proportionality of pharmacokinetics ([1]; intranasal single ascending dose, healthy subjects): exhibits dose-proportional pharmacokinetics; also recorded: approximately dose linear
- mean Cmax ([1]; intranasal, 12 mg dosage, healthy subjects, plasma 5-MeO-DMT): 0.029 µg/mL
- mean Tmax ([1]; intranasal, healthy subjects): 9.5 min
- mean half-life (T1/2) ([1]; intranasal, healthy subjects): 21 min
- irritation tolerability (Irritation tolerability): good irritation tolerability
- TGA Guidance: decomposition temperature [2]: ~220 °C
- TGA Guidance: mass loss [2]: full mass loss
- dissolution rate [4]: almost instantaneous dissolution rate

Molecule: COc1ccc2[nH]cc(CCN(C)C)c2c1 [Example 5-MeO-DMT, 5-methoxy-N,N-dimethyltryptamine]
- AUC ([5]; read-out: maximum exposure limit AUC): 0.22 µg·h/mL
- Cmax ([5]; read-out: maximum exposure limit Cmax): 0.421 µg/mL

Molecule: COc1ccc2[nH]cc(CCN(C)C)c2c1 [Tosylate, 5-MeO-DMT tosylate]
- TGA Guidance: decomposition temperature [2]: Melt 110° C, gross dcomp starts 280 °C ° C.

Molecule: COc1ccc2[nH]cc(CCN(C)C)c2c1.Cl [5-MeO-DMT HCl, 5-MeO-DMT hydrochloride]
- dose proportionality of pharmacokinetics [6]: does not display dose-proportional pharmacokinetics
